US10723705B2, “Heterocyclic compounds and uses thereof” (Incyte Corporation, priority 2015, dated 2020)

Each compound was assayed against Human recombinant Histone Deacetylase 8 (HDAC8) (Homo sapiens (Human), UniProt Q9BY41) (assay: HDAC8 Enzymatic Assay (HDAC-Glo I/II luminescence)). Conditions: HDAC8; read-out: IC50.
Type: biochemical
How it was run: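 Human recombinant HDAC8 (1.5 nM final) preincubated with compound for 30 min, then reacted with 50 μM Boc-GAK(Ac)-aminoluciferin plus trypsin-containing developer for 15 min at room temperature, pH 8.0, 0.5% DMSO. Luminescence read-out; IC50 from percent control activity versus log concentration.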

Chain of Human recombinant Histone Deacetylase 8 (HDAC8) (Q9BY41 whole entry): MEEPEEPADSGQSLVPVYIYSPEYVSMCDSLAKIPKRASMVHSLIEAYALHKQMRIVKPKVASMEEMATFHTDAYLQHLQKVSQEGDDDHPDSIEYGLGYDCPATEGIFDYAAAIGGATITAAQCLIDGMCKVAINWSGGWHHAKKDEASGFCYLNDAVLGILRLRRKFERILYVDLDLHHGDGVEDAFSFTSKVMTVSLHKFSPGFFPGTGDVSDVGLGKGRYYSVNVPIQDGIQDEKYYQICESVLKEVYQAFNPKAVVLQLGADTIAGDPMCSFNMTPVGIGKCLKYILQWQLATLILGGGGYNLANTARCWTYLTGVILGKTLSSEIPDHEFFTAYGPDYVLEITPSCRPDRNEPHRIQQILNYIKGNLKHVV

IC50 [nM] | Compound
469 | O=C(NO)C(Cc1ccccc1)n1cc2cccc(CNC3CC3)c2n1 (stereo not shown) [Compound I-0180, 2-{7-[(Cyclopropylamino)methyl]-2H-indazol-2-yl}-N-hydroxy-3-phenylpropanamide]
16 | O=C(NCCC1CCOCC1)c1cccc2c(C#CC3CC3)n(C(Cc3ccccc3)C(=O)NO)nc12 (stereo not shown) [Compound I-0197, 2-[1-Benzyl-2-(hydroxyamino)-2-oxethyl]-3-(cyclopropylethynyl)-N-[2-(tetrahydro-2H-pyran-4-yl)ethyl]-2H-indazole-7-carboxamide]
39 | Cn1nc(C(Cc2ccccc2)C(=O)NO)c2ccc(Cl)cc21 (stereo not shown) [Compound I-0202, 2-(6-Chloro-1-methyl-1H-indazol-3-yl)-N-hydroxy-3-phenylpropanamide]
84 | Cn1nc(C(Cc2ccccc2)C(=O)NO)c2ccc(-c3cncnc3)cc21 (stereo not shown) [Compound I-0204, N-hydroxy-2-(1-methyl-6-pyrimidin-5-yl-1H-indazol-3-yl)-3-phenylpropanamide]

Same assay, conditions: class symbols, Table 14; read-out: HDAC8 IC50

Compound | IC50 [nM]
O=C(NO)C(Cc1ccccc1)n1cc2cccc(CNCC3CC3)c2n1 (stereo not shown) [Compound I-0181, 2-(7-((cyclopropylmethylamino)methyl)-2H-indazol-2-yl)-N-hydroxy-3-phenylpropanamide] | > 500
O=C(NO)C(Cc1ccccc1)n1cc2cccc(CNC3CCOCC3)c2n1 (stereo not shown) [Compound I-0182, N-hydroxy-3-phenyl-2-(7-((tetrahydro-2H-pyran-4-ylamino)methyl)-2H-indazol-2-yl)propanamide] | > 500
COC1CCN(Cc2cccc3cn(C(Cc4ccccc4)C(=O)NO)nc23)CC1 (stereo not shown) [Compound I-0184, N-hydroxy-2-(7-((4-methoxypiperidin-1-yl)methyl)-2H-indazol-2-yl)-3-phenylpropanamide] | 200 to 500
O=C(NO)C(Cc1ccccc1)n1cc2cccc(CN3CCC(N4CCOCC4)CC3)c2n1 (stereo not shown) [Compound I-0185, N-hydroxy-2-(7-((4-morpholinopiperidin-1-yl)methyl)-2H-indazol-2-yl)-3-phenylpropanamide] | > 500
O=C(NO)C(Cc1ccccc1)n1cc2cccc(CN3CCC4(CCOCC4)CC3)c2n1 (stereo not shown) [Compound I-0187, 2-(7-(3-oxa-9-azaspiro[5.5]undecan-9-ylmethyl)-2H-indazol-2-yl)-N-hydroxy-3-phenylpropanamide] | > 500
O=C(NO)C(Cc1ccccc1)n1cc2cccc(CN3CCCC(F)(F)C3)c2n1 (stereo not shown) [Compound I-0190, 2-(7-((3,3-difluoropiperidin-1-yl)methyl)-2H-indazol-2-yl)-N-hydroxy-3-phenylpropanamide] | 200 to 500
O=C(NO)C(Cc1ccccc1)n1cc2cccc(CN3CCC(C(F)(F)F)CC3)c2n1 (stereo not shown) [Compound I-0191, N-hydroxy-3-phenyl-2-(7-((4-(trifluoromethyl)piperidin-1-yl)methyl)-2H-indazol-2-yl)propanamide] | > 500
CN1CCN(Cc2cccc3cn(C(Cc4ccccc4)C(=O)NO)nc23)CC1=O (stereo not shown) [Compound I-0192, N-hydroxy-2-(7-((4-methyl-3-oxopiperazin-1-yl)methyl)-2H-indazol-2-yl)-3-phenylpropanamide] | 50 to 200
O=C(NO)C(Cc1ccccc1)n1ccc2cc(Cl)cnc21 (stereo not shown) [Compound I-0195, 2-(5-chloro-1H-pyrrolo[2,3-b]pyridin-1-yl)-N-hydroxy-3-phenylpropanamide] | 200 to 500
O=C(NO)C(Cc1ccccc1)n1ccc2c(Cl)nccc21 (stereo not shown) [Compound I-0196, 2-(4-chloro-1H-pyrrolo[3,2-c]pyridin-1-yl)-N-hydroxy-3-phenylpropanamide] | 200 to 500
O=C(NO)C(Cc1ccccc1)n1cc2ccnc(-c3cncnc3)c2n1 (stereo not shown) [Compound I-0198, N-hydroxy-3-phenyl-2-(7-(pyrimidin-5-yl)-2H-pyrazolo[3,4-c]pyridin-2-yl)propanamide] | ≤ 50
O=C(NO)C(Cc1ccccc1)n1cc2c(n1)CCCC2 (stereo not shown) [Compound I-0200, N-hydroxy-3-phenyl-2-(4,5,6,7-tetrahydro-2H-indazol-2-yl)propanamide] | 200 to 500
Cn1nccc1-c1ccc2c(C(Cc3ccccc3)C(=O)NO)nn(C)c2c1 (stereo not shown) [Compound I-0203, N-hydroxy-2-(1-methyl-6-(1-methyl-1H-pyrazol-5-yl)-1H-indazol-3-yl)-3-phenylpropanamide] | 50 to 200

Now from value to compound:

IC50 [nM] | Compound
≤ 50 | O=C(NCC1CCOCC1)c1cccc2cn(C(Cc3ccccc3)C(=O)NO)nc12 (stereo not shown) [Compound I-0177, 2-(1-(hydroxyamino)-1-oxo-3-phenylpropan-2-yl)-N-((tetrahydro-2H-pyran-4-yl)methyl)-2H-indazole-7-carboxamide]
≤ 50 | O=C(NCCC1CCOCC1)c1cccc2cn(C(Cc3ccccc3)C(=O)NO)nc12 (stereo not shown) [Compound I-0178, 2-(1-(hydroxyamino)-1-oxo-3-phenylpropan-2-yl)-N-(2-(tetrahydro-2H-pyran-4-yl)ethyl)-2H-indazole-7-carboxamide]
50 to 200 | O=C(NCCN1CCOCC1)c1cccc2cn(C(Cc3ccccc3)C(=O)NO)nc12 (stereo not shown) [Compound I-0179, 2-(1-(hydroxyamino)-1-oxo-3-phenylpropan-2-yl)-N-(2-morpholinoethyl)-2H-indazole-7-carboxamide]
200 to 500 | O=C(NO)C(Cc1ccccc1)n1cc2cccc(CNC3CC3)c2n1 (stereo not shown) [Compound I-0180, 2-{7-[(Cyclopropylamino)methyl]-2H-indazol-2-yl}-N-hydroxy-3-phenylpropanamide]
200 to 500 | O=C(NO)C(Cc1ccccc1)n1cc2cccc(CN3CCOCC3)c2n1 (stereo not shown) [Compound I-0183, N-hydroxy-2-(7-(morpholinomethyl)-2H-indazol-2-yl)-3-phenylpropanamide]
> 500 | O=C(NO)C(Cc1ccccc1)n1cc2cccc(CN3CCC4(CC3)COC4)c2n1 (stereo not shown) [Compound I-0186, 2-(7-(2-oxa-7-azaspiro[3.5]nonan-7-ylmethyl)-2H-indazol-2-yl)-N-hydroxy-3-phenylpropanamide]
> 500 | CN1CCN(Cc2cccc3cn(C(Cc4ccccc4)C(=O)NO)nc23)CC1 (stereo not shown) [Compound I-0188, N-hydroxy-2-(7-((4-methylpiperazin-1-yl)methyl)-2H-indazol-2-yl)-3-phenylpropanamide]
200 to 500 | O=C(NO)C(Cc1ccccc1)n1cc2cccc(CN3CCC(F)(F)CC3)c2n1 (stereo not shown) [Compound I-0189, 2-(7-((4,4-difluoropiperidin-1-yl)methyl)-2H-indazol-2-yl)-N-hydroxy-3-phenylpropanamide]
> 500 | O=C(NO)C(Cc1ccccc1)n1ccc2nc(Cl)ccc21 (stereo not shown) [Compound I-0193, 2-(5-chloro-1H-pyrrolo[3,2-b]pyridin-1-yl)-N-hydroxy-3-phenylpropanamide]
> 500 | O=C(NO)C(Cc1ccccc1)n1ccc2cc(Cl)ncc21 (stereo not shown) [Compound I-0194, 2-(5-chloro-1H-pyrrolo[2,3-c]pyridin-1-yl)-N-hydroxy-3-phenylpropanamide]
≤ 50 | O=C(NCCC1CCOCC1)c1cccc2c(C#CC3CC3)n(C(Cc3ccccc3)C(=O)NO)nc12 (stereo not shown) [Compound I-0197, 2-[1-Benzyl-2-(hydroxyamino)-2-oxethyl]-3-(cyclopropylethynyl)-N-[2-(tetrahydro-2H-pyran-4-yl)ethyl]-2H-indazole-7-carboxamide]
≤ 50 | Cn1nccc1-c1nccc2cn(C(Cc3ccccc3)C(=O)NO)nc12 (stereo not shown) [Compound I-0199, N-hydroxy-2-(7-(1-methyl-1H-pyrazol-5-yl)-2H-pyrazolo[3,4-c]pyridin-2-yl)-3-phenylpropanamide]
200 to 500 | O=C(NO)C(Cc1ccccc1)n1ncc2c1CCCC2 (stereo not shown) [Compound I-0201, N-hydroxy-3-phenyl-2-(4,5,6,7-tetrahydro-1H-indazol-1-yl)propanamide]
50 to 200 | Cn1nc(C(Cc2ccccc2)C(=O)NO)c2ccc(-c3cncnc3)cc21 (stereo not shown) [Compound I-0204, N-hydroxy-2-(1-methyl-6-pyrimidin-5-yl-1H-indazol-3-yl)-3-phenylpropanamide]
50 to 200 | Cn1nc(C(Cc2ccccc2)C(=O)NO)c2ccc(-c3ccncc3)cc21 (stereo not shown) [Compound I-0205, N-hydroxy-2-(1-methyl-6-(pyridin-4-yl)-1H-indazol-3-yl)-3-phenylpropanamide]
≤ 50 | O=C(NO)C(Cc1ccccc1)n1nc2c(c1C#CC1CC1)CCCC2 (stereo not shown) [Compound I-0206, 2-(3-(cyclopropylethynyl)-4,5,6,7-tetrahydro-2H-indazol-2-yl)-N-hydroxy-3-phenylpropanamide]
≤ 50 | O=C(NO)C(Cc1ccccc1)n1nc2c(-c3cncnc3)nccc2c1C#CC1CC1 (stereo not shown) [Compound I-0207, 2-(3-(cyclopropylethynyl)-7-(pyrimidin-5-yl)-2H-pyrazolo[3,4-c]pyridin-2-yl)-N-hydroxy-3-phenylpropanamide]
